Key:
Human P2Y12 receptor = biological target: T1, Human P2Y12 receptor (Homo sapiens, UniProt Q9H244); assay: Human P2Y12 receptor cell membrane binding assay with [3H] 2-Mes-ADP; conditions: 1 nM [3H] 2-Mes-ADP, membranes of HEK cells expressing P2Y12 receptor; read-out: Binding activity (IC50)
T1 construct: expressed in transfected cells; host or cells: HEK cells
In short: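 Membranes from HEK cells expressing human P2Y12 were incubated with compound and 1 nM [3H]2-MeS-ADP for 1 h at room temperature. Bound radioactivity was collected by GF/B filtration.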

[1] = test system: Human platelet aggregation caused by ADP; assay: Inhibition of ADP-induced platelet aggregation (Mimic-human PRP); assay type: cell-based; conditions: 20 μM ADP, human platelet concentrate diluted with PPP, absorption at 595 nm
In short: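 Human PRP diluted with PPP to 3–4×10^8 platelets/mL was preincubated 20 min at room temperature with compound (0.01–30 μM, DMSO), then stimulated with 20 μM ADP. Aggregation read as A595 increase at 3 min versus 0 and 20 μM ADP controls; Ki from sigmoidal non-linear regression.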

T1 sequence (Q9H244 whole entry): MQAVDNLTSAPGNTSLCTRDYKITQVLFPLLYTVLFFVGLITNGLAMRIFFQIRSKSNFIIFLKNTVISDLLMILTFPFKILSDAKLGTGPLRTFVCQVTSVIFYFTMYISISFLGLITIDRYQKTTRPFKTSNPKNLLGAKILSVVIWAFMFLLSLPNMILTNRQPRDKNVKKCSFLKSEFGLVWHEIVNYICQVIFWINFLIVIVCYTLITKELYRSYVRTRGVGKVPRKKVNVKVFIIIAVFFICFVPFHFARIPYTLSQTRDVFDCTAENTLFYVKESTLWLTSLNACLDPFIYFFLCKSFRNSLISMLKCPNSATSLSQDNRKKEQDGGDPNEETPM

Row | SMILES | IC50 (Human P2Y12 receptor) [nM] | Ki [1] [nM]
1 | CCCc1cc2c(N3CCn4c(nnc4C(F)(F)F)C3)nc(N3CC[C@H](NC(=O)CC#N)C3)nc2s1 [Example 1-103, 2-Cyano-N-{(S)-1-[6-propyl-4-(3-trifluoromethyl-5,6-dihydro-8H-[1,2,4]triazolo[4,3-a]pyrazin-7-yl)-thieno[2,3-d]pyrimidin-2-yl]-pyrrolidin-3-yl}-acetamide] | 50 | 6.6
2 | CCCc1cc2c(N3CCn4c(nnc4C(F)(F)F)C3)nc(N3CC[C@H](NC(=O)CC(F)(F)F)C3)nc2s1 [Example 1-104, 3,3,3-Trifluoro-N-{(S)-1-[6-propyl-4-(3-trifluoromethyl-5,6-dihydro-8H-[1,2,4]triazolo[4,3-a]pyrazin-7-yl)-thieno[2,3-d]pyrimidin-2-yl]-pyrrolidin-3-yl}-propionamide] | 80 | 86
3 | CCCc1cc2c(N3CCn4c(nnc4C(F)(F)F)C3)nc(N3CC[C@H](NC(=O)CCO)C3)nc2s1 [Example 1-109, 3-Hydroxy-N-{(S)-1-[6-propyl-4-(3-trifluoromethyl-5,6-dihydro-8H-[1,2,4]triazolo[4,3-a]pyrazin-7-yl)-thieno[2,3-d]pyrimidin-2-yl]-pyrrolidin-3-yl}-propionamide] | 80 | 26
4 | CCCc1cc2c(N3CCn4c(nnc4C(F)(F)F)C3)nc(N3CC[C@H](NC(=O)CCN)C3)nc2s1 [Example 1-110, 3-Amino-N-{(S)-1-[6-propyl-4-(3-trifluoromethyl-5,6-dihydro-8H-[1,2,4]triazolo[4,3-a]pyrazin-7-yl)-thieno[2,3-d]pyrimidin-2-yl]-pyrrolidin-3-yl}-propionamide] | 670 | 60
5 | CCCc1cc2c(N3CCn4c(nnc4C(F)(F)F)C3)nc(N3CC[C@H](NC(=O)c4ccccn4)C3)nc2s1 [Example 1-111, Pyridine-2-carboxylic Acid {(S)-1-[6-propyl-4-(3-trifluoromethyl-5,6-dihydro-8H-[1,2,4]triazolo[4,3-a]pyrazin-7-yl)-thieno[2,3-d]pyrimidin-2-yl]-pyrrolidin-3-yl}-amide] | 150 | 590
6 | CCCc1cc2c(N3CCn4c(nnc4C(F)(F)F)C3)nc(N3CC[C@H](NC(=O)c4ccco4)C3)nc2s1 [Example 1-112, Furan-2-carboxylic Acid {(S)-1-[6-propyl-4-(3-trifluoromethyl-5,6-dihydro-8H-[1,2,4]triazolo[4,3-a]pyrazin-7-yl)-thieno[2,3-d]pyrimidin-2-yl]-pyrrolidin-3-yl}-amide] | 50 | 260
7 | CCCc1cc2c(N3CCn4c(nnc4C(F)(F)F)C3)nc(N3CC[C@H](NS(C)(=O)=O)C3)nc2s1 [Example 1-113, N-{(S)-1-[6-Propyl-4-(3-trifluoromethyl-5,6-dihydro-8H-[1,2,4]triazolo[4,3-a]pyrazin-7-yl)-thieno[2,3-d]pyrimidin-2-yl]-pyrrolidin-3-yl}-methanesulfonamide] | 32 | 36
8 | CCCc1cc2c(N3CCn4c(nnc4C(F)(F)F)C3)nc(N3CC(=O)C(N)C3)nc2s1 (centres unmarked) [Example 1-115, 4-Amino-1-[6-propyl-4-(3-trifluoromethyl-5,6-dihydro-8H-[1,2,4]triazolo[4,3-a]pyrazin-7-yl)-thieno[2,3-d]pyrimidin-2-yl]-pyrrolidin-3-one] | 110 | 16
9 | CCCc1cc2c(N3CCn4c(nnc4C(F)(F)F)C3)nc(N3CC(=NO)C(N)C3)nc2s1 (centres unmarked) [Example 1-116, 4-Amino-1-[6-propyl-4-(3-trifluoromethyl-5,6-dihydro-8H-[1,2,4]triazolo[4,3-a]pyrazin-7-yl)-thieno[2,3-d]pyrimidin-2-yl]-pyrrolidin-3-one oxime] | 70 | 28
10 | CCCc1cc2c(N3CCn4c(nnc4C(F)(F)F)C3)nc(N3CC(=NOC)C(N)C3)nc2s1 (centres unmarked) [Example 1-117, 4-Amino-1-[6-propyl-4-(3-trifluoromethyl-5,6-dihydro-8H-[1,2,4]triazolo[4,3-a]pyrazin-7-yl)-thieno[2,3-d]pyrimidin-2-yl]-pyrrolidin-3-one O-methyl-oxime] | 220 | 42
11 | CCCc1cc2c(N3CCn4c(nnc4C(F)(F)F)C3)nc(N3CC[C@H](NC(=O)Cc4c[nH]cn4)C3)nc2s1 [Example 1-120, 2-(1H-Imidazol-4-yl)-N-{(S)-1-[6-propyl-4-(3-trifluoromethyl-5,6-dihydro-8H-[1,2,4]triazolo[4,3-a]pyrazin-7-yl)-thieno[2,3-d]pyrimidin-2-yl]-pyrrolidin-3-yl}-acetamide] | 38 | 16
12 | CCCc1cc2c(N3CCn4c(nnc4C(F)(F)F)C3)nc(NCCOCC)nc2s1 [Example 1-122, (2-Ethoxy-ethyl)-[6-propyl-4-(3-trifluoromethyl-5,6-dihydro-8H-[1,2,4]triazolo[4,3-a]pyrazin-7-yl)-thieno[2,3-d]pyrimidin-2-yl]-amine] | 220 | 467
13 | CCCc1cc2c(N3CCn4c(nnc4C(F)(F)F)C3)nc(NCCOCCO)nc2s1 [Example 1-123, 2-{2-[6-Propyl-4-(3-trifluoromethyl-5,6-dihydro-8H-[1,2,4]triazolo[4,3-a]pyrazin-7-yl)-thieno[2,3-d]pyrimidin-2-ylamino]-ethoxy}-ethanol] | 260 | 367
14 | CCCc1cc2c(N3CCn4c(nnc4C(F)(F)F)C3)nc(N3CCC[C@H](N)C3)nc2s1 [Example 1-125, (S)-1-[6-Propyl-4-(3-trifluoromethyl-5,6-dihydro-8H-[1,2,4]triazolo[4,3-a]pyrazin-7-yl)-thieno[2,3-d]pyrimidin-2-yl]-piperidin-3-ylamine] | 150 | 45
15 | CCCc1cc2c(N3CCn4c(nnc4C(F)(F)F)C3)nc(N[C@H]3CCNC3)nc2s1 [Example 1-126, [6-Propyl-4-(3-trifluoromethyl-5,6-dihydro-8H-[1,2,4]triazolo[4,3-a]pyrazin-7-yl)-thieno[2,3-d]pyrimidin-2-yl]-(S)-pyrrolidin-3-yl-amine] | 130 | 29
16 | CCCc1cc2c(N3CCn4c(nnc4C(F)(F)F)C3)nc(N3CCC(C(=O)NS(=O)(=O)Cc4ccccc4)CC3)nc2s1 [Example 1-127, C-Phenyl-N-{1-[6-propyl-4-(3-trifluoromethyl-5,6-dihydro-8H-[1,2,4]triazolo[4,3-a]pyrazin-7-yl)-thieno[2,3-d]pyrimidin-2-yl]-piperidine-4-carbonyl}-methanesulfonamide] | 100 | 900
17 | CCCc1cc2c(N3CCn4c(nnc4C(F)(F)F)C3)nc(NCCN3CSCC3=O)nc2s1 [Example 1-128, 3-{2-[6-Propyl-4-(3-trifluoromethyl-5,6-dihydro-8H-[1,2,4]triazolo[4,3-a]pyrazin-7-yl)-thieno[2,3-d]pyrimidin-2-ylamino]-ethyl}-thiazolidin-4-one] | 100 | 61
18 | CCCc1cc2c(N3CCn4c(nnc4C(F)(F)F)C3)nc(N[C@@H]3CCNC3)nc2s1 [Example 1-130, [6-Propyl-4-(3-trifluoromethyl-5,6-dihydro-8H-[1,2,4]triazolo[4,3-a]pyrazin-7-yl)-thieno[2,3-d]pyrimidin-2-yl]-(R)-pyrrolidin-3-yl-amine] | 320 | 132
19 | CCCc1cc2c(N3CCn4c(nnc4C(F)(F)F)C3)nc(Nc3nc(C(=O)O)cs3)nc2s1 [Example 1-132, 2-[6-Propyl-4-(3-trifluoromethyl-5,6-dihydro-8H-[1,2,4]triazolo[4,3-a]pyrazin-7-yl)thieno[2,3-d]pyrimidin-2-ylamino]thiazole-4-carboxylic acid] | 47 | 100
20 | CCCc1cc2c(N3CCn4c(nnc4C(F)(F)F)C3)nc(N3CCNc4ncccc43)nc2s1 [Example 1-134, 1-[6-Propyl-4-(3-trifluoromethyl-5,6-dihydro-8H-[1,2,4]triazolo[4,3-a]pyrazin-7-yl)thieno[2,3-d]pyrimidin-2-yl]-1,2,3,4-tetrahydro-pyrido[2,3-b]pyrazine] | 1000 | 869
21 | CCc1cc2c(N3CCn4c(nnc4C(F)(F)F)C3)nc(N3CCNC(=O)C3)nc2s1 [Example 2-2, 4-[6-Ethyl-4-(3-trifluoromethyl-5,6-dihydro-8H-[1,2,4]triazolo[4,3-a]pyrazin-7-yl)-thieno[2,3-d]pyrimidin-2-yl]-piperazin-2-one] | 97 | 832
22 | CCc1cc2c(N3CCn4c(nnc4C(F)(F)F)C3)nc(NCCO)nc2s1 [Example 2-5, 2-[6-Ethyl-4-(3-trifluoromethyl-5,6-dihydro-8H-[1,2,4]triazolo[4,3-a]pyrazin-7-yl)-thieno[2,3-d]pyrimidin-2-ylamino]-ethanol] | 710 | 857
23 | CCc1cc2c(N3CCn4c(nnc4C(F)(F)F)C3)nc(N(CCO)CCO)nc2s1 [Example 2-6, 2-[[6-Ethyl-4-(3-trifluoromethyl-5,6-dihydro-8H-[1,2,4]triazolo[4,3-a]pyrazin-7-yl)-thieno[2,3-d]pyrimidin-2-yl]-(2-hydroxy-ethyl)-amino]-ethanol] | 835 | 715
24 | CCc1cc2c(N3CCn4c(nnc4C(F)(F)F)C3)nc(N3CCNCC3)nc2s1 [Example 2-7, 7-(6-Ethyl-2-piperazin-1-yl-thieno[2,3-d]pyrimidin-4-yl)-3-trifluoromethyl-5,6,7,8-tetrahydro-[1,2,4]triazolo[4,3-a]pyrazine] | 210 | 669
25 | CCc1cc2c(N3CCn4c(nnc4C(F)(F)F)C3)nc(N3CCN(C)CC3)nc2s1 [Example 2-10, 7-[6-Ethyl-2-(4-methyl-piperazin-1-yl)-thieno[2,3-d]pyrimidin-4-yl]-3-trifluoromethyl-5,6,7,8-tetrahydro-[1,2,4]triazolo[4,3-a]pyrazine] | 220 | 773

Reference: US20110166121A1 (LG LIFE SCIENCES LTD., priority 2008, published 2011)
